Data set [1] deals with Fadu cell line. The experiment in a line: Additional in vitro IC50 tests (Table 3). It is filed as cell-based. As to conditions: Homo sapiens. The method, then:
(§1) Cell lines were maintained according to the instructions provided by ATCC (https://www.lgcstandards-atcc.org/) in a 5% CO2 humidified incubator maintained at 37° C. temperature. Effects of compounds on cell viability were measured via CellTiter-Glo® luminescent cell viability assay (Promega, Madison, WI, USA) Cells were plated at 1000 cells/well onto a flat-bottomed, white 96 well plate (BRANDplates, cat. no.: 781965). […] After the treatment, medium was removed and CellTiter-Glo® reagent was added. The luminescence signal was recorded using a microplate reader (BioTek Synergy 2 Multi-Mode Reader, BioTek, Winooski, VT, USA).
(§2) Cell viability data (% of untreated control cells) was evaluated with Microsoft Excel. Dose-response curves (using a non-linear regression model, log (inhibitor) vs response, variable slope) were generated and IC50 values were determined using Graph Pad Prism 5.02 software (GraphPad Software, San Diego, CA, USA).

The test system of data set [2] is SCC-25 cell line. The experiment in a line: Additional in vitro IC50 tests (Table 3). It counts as cell-based. As to conditions: Homo sapiens. Here is the method: as §1, §2
Data set [3] relates to H2228 cell line. The experiment in a line: Additional in vitro IC50 tests (Table 3). It counts as cell-based. As to conditions: Homo sapiens, NCI-H2228. Here is the method:
as §1, §2

The subject of data set [4] is EBC-1 cell line. The data set is described as follows: Additional in vitro IC50 tests (Table 3). The following applies: Homo sapiens. It is filed as cell-based. Here is the method:
as §1, §2

The test system of data set [5] is Detroit 562 cell line. The experiment in a line: Additional in vitro IC50 tests (Table 3). It counts as cell-based. As to conditions: Homo sapiens. Here is the method:
as §1, §2

The subject of data set [6] is MDA-MB-453 breast cancer cell line. The experiment in a line: CellTiter-Glo IC50 (Table 3). It is filed as cell-based. The following applies: Homo sapiens. Here is the method:
(§3) Some representative imipridones and ONC212 as reference were further tested on the following human malignant cell lines: PC3 and LNCap (prostate carcinoma); BxPC3, MiaPaCa2 and Panc1 (pancreatic cancer); A549, HCC827, H1993 and H520 (lung carcinoma); MDA-MB-453 and MDA-MB-231 (breast cancer) (see Table 2 and FIGS. 1-11).
as §1, §2
For orientation: Cellular ATP, detected with luciferase, serves as a proxy for viable cell number.

The subject of data set [7] is MDA-MB-231 breast cancer cell line. The data set is described as follows: CellTiter-Glo IC50 (Table 3). It counts as cell-based. The following applies: Homo sapiens. The method, then: as §3, §1, §2
For data set [8], the system named is representative cell lines. The data set is described as follows: Cytotoxicity on representative cell lines (summary statement). The following applies: Homo sapiens; summary range, ca. It counts as cell-based.
Data set [9] has as its system PANC-1 (human pancreatic carcinoma) cells. The data set is described as follows: Impedance-based viability assay (xCELLigence SP), long treatment. It counts as cell-based. As to conditions: 72 h, read-out: cytotoxicity expressed in IC50, PANC-1. The source says: (Gibco®/Invitrogen Corporation, New York, NY, USA).
Data obtained from each experiment represent mathematical averages.

In data set [10] the test system is A549 lung carcinoma cell line. The data set is described as follows: CellTiter-Glo IC50 (Example 19). It is filed as cell-based. As to conditions: Homo sapiens, 72 h. The method, then: as §3, §1, §2
The subject of data set [11] is MiaPaCa2 pancreatic cancer cell line. The experiment in a line: CellTiter-Glo IC50 (Example 19). It counts as cell-based. As to conditions: Homo sapiens, MIA PaCa-2, 72 h. Here is the method:
as §3, §1, §2

Data set [12] concerns HCC827 lung carcinoma cell line. The data set is described as follows: CellTiter-Glo IC50 (Example 19). It counts as cell-based. As to conditions: Homo sapiens, 72 h. Here is the method:
as §3, §1, §2

Data set [13] concerns H1993 lung carcinoma cell line. The experiment in a line: CellTiter-Glo IC50 (Example 19). It is filed as cell-based. As to conditions: Homo sapiens, NCI-H1993, 72 h. The method, then:
as §3, §1, §2

Data set [14] deals with PC3 human prostate cancer cell line. The experiment in a line: CellTiter-Glo IC50 (Example 19). It is filed as cell-based. As to conditions: 72 h. The method, then:
as §3, §1, §2

Data set [15] has as its system BxPC3 pancreatic cancer cell line. The data set is described as follows: CellTiter-Glo IC50 (Example 19). It counts as cell-based. The following applies: Homo sapiens, BXPC-3, 72 h. The method, then:
as §3, §1, §2

The test system of data set [16] is Panc1 pancreatic cancer cell line. The experiment in a line: CellTiter-Glo IC50 (Example 19). It is filed as cell-based. The following applies: Homo sapiens, PANC-1, 72 h. The method, then: as §3, §1, §2
Data set [17] concerns H520 lung carcinoma cell line. The experiment in a line: CellTiter-Glo IC50 (Example 19). It counts as cell-based. The following applies: Homo sapiens, NCI-H520, 72 h. Here is the method:
as §3, §1, §2

The subject of data set [18] is LNCap human prostate cancer cell line. The experiment in a line: CellTiter-Glo IC50 (Example 19). It counts as cell-based. The following applies: 72 h. Here is the method: as §3, §1, §2
For data set [19], the system named is EBC-1 lung cancer cell line. The data set is described as follows: High-throughput screening, CellTiter-Glo cell viability assay at 100 nM. It is filed as cell-based, human. As to conditions: Homo sapiens, EBC-1, HTS, compounds at 100 nM, 72 h, read-out: cytotoxicity expressed in IC50, EBC-1 (results of High throughput screening).
Data set [20] relates to H2228 lung cancer cell line. The description is as above. As to conditions: Homo sapiens, NCI-H2228, HTS, compounds at 100 nM, 72 h, read-out: cytotoxicity expressed in IC50, H2228 (results of High throughput screening). It counts as cell-based, human.

The structures appear in SMILES notation.

One may read the IC50 as the point on the concentration scale where inhibition reaches its midpoint. The term melting point denotes the temperature of the solid-liquid transition. As to `O=C1C2=C(CCN(Cc3cc(F)cc(F)c3)C2)N2CCN=C2N1Cc1ccc(Br)cc1` [I/39, 4-(4-Bromobenzyl)-7-(3,5-difluorobenzyl)-2,4,6,7,8,9-hexahydroimidazo[1,2-a]pyrido[3,4-e]pyrimidin-5(1H)-one], the melting point worked out at 173.5 °C. Also, in data set [1], the IC50 was determined as 5 nM. For the same compound, the IC50 in data set [2] amounted to 7 nM. The IC50 in [3] worked out at 6 nM. For the same compound, the IC50 in data set [4] was determined as 4 nM. Also, the IC50 in data set [5] came out at 3 nM. Further, the half-maximal inhibitory concentration (IC50) in data set [6] is less than 1 nM. Also, the concentration for half-maximal inhibition (IC50) in data set [7] was less than 1 nM. The IC50 in data set [8] lay within 3 to 8 nM. In [9], the IC50 was 3 nM. Further, the IC50 in [10] is 4 nM. The IC50 in [11] amounted to 4 nM. For the same compound, the IC50 in data set [12] worked out at 4 nM. In addition, the IC50 in data set [13] was found to be 3 nM. Further, the IC50 in data set [14] turned out to be 2 nM. The 50% inhibitory concentration (IC50) in data set [15] amounted to 3 nM. Besides, the concentration for half-maximal inhibition (IC50) in data set [16] worked out at 4 nM. The IC50 in data set [17] was determined as 3 nM. Besides, the half-maximal inhibitory concentration (IC50) in [18] was 2 nM. The IC50 in data set [19] is less than 100 nM. The IC50 in [20] is less than 100 nM.

For the origin of these results see patent US20230295162A1 (EÖTVÖS LORÁND TUDOMÁNYEGYETEM, priority 2020, published 2023).
